Results taken from PubChem BioAssay (NCI).
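Dose response: 5 concentrations. Exposure: 48 h. Format: 96-well plates. Endpoint: linear interpolation; highest concentration if not reached. TGI denotes the concentration required for complete inhibition of growth.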

Columns and labels:
Assay in all cases: NCI-60 cell line screen, 48 h
786-0 renal = tested on: 786-0 renal
A549 NSCLC = tested on: A549 NSCLC
ACHN renal = tested on: ACHN renal
CCRF-CEM leukemia = tested on: CCRF-CEM leukemia
COLO 205 colon = tested on: COLO 205 colon
DLD-1 colon = tested on: DLD-1 colon
DMS 273 small cell lung = tested on: DMS 273 small cell lung
EKVX NSCLC = tested on: EKVX NSCLC
HCC-2998 colon = tested on: HCC-2998 colon
HCT-116 colon = tested on: HCT-116 colon
HCT-15 colon = tested on: HCT-15 colon
HL-60(TB) leukemia = tested on: HL-60(TB) leukemia
HOP-62 NSCLC = tested on: HOP-62 NSCLC
IGROV1 ovarian = tested on: IGROV1 ovarian
K-562 leukemia = tested on: K-562 leukemia
KM12 colon = tested on: KM12 colon
KM20L2 colon = tested on: KM20L2 colon
LOX IMVI melanoma = tested on: LOX IMVI melanoma
LXFL 529 NSCLC = tested on: LXFL 529 NSCLC
M14 melanoma = tested on: M14 melanoma
M19-MEL melanoma = tested on: M19-MEL melanoma
MALME-3M melanoma = tested on: MALME-3M melanoma
MOLT-4 leukemia = tested on: MOLT-4 leukemia
NCI-H226 lung = tested on: NCI-H226 lung
NCI-H23 lung = tested on: NCI-H23 lung
NCI-H460 lung = tested on: NCI-H460 lung
NCI-H522 lung = tested on: NCI-H522 lung
OVCAR-3 ovarian = tested on: OVCAR-3 ovarian
OVCAR-8 ovarian = tested on: OVCAR-8 ovarian
RPMI-8226 leukemia = tested on: RPMI-8226 leukemia
RXF 393 renal = tested on: RXF 393 renal
SF-268 CNS = tested on: SF-268 CNS
SF-295 CNS = tested on: SF-295 CNS
SF-539 CNS = tested on: SF-539 CNS
SK-MEL-28 melanoma = tested on: SK-MEL-28 melanoma
SK-OV-3 ovarian = tested on: SK-OV-3 ovarian
SN12C renal = tested on: SN12C renal
SNB-19 CNS = tested on: SNB-19 CNS
SNB-75 CNS = tested on: SNB-75 CNS
SNB-78 CNS = tested on: SNB-78 CNS
SR leukemia = tested on: SR leukemia
SW-620 colon = tested on: SW-620 colon
TK-10 renal = tested on: TK-10 renal
U251 CNS = tested on: U251 CNS
UACC-257 melanoma = tested on: UACC-257 melanoma
UACC-62 melanoma = tested on: UACC-62 melanoma
UO-31 renal = tested on: UO-31 renal
A498 renal = tested on: A498 renal
BT-549 breast = tested on: BT-549 breast
CAKI-1 renal = tested on: CAKI-1 renal
DU-145 prostate = tested on: DU-145 prostate
HOP-92 NSCLC = tested on: HOP-92 NSCLC
HS 578T breast = tested on: HS 578T breast
HT29 colon = tested on: HT29 colon
MCF7 breast = tested on: MCF7 breast
MDA-MB-231 breast = tested on: MDA-MB-231 breast
MDA-MB-435 = tested on: MDA-MB-435
MDA-N = tested on: MDA-N
NCI/ADR-RES ovarian = tested on: NCI/ADR-RES ovarian
OVCAR-4 ovarian = tested on: OVCAR-4 ovarian
OVCAR-5 ovarian = tested on: OVCAR-5 ovarian
PC-3 prostate = tested on: PC-3 prostate
SK-MEL-2 melanoma = tested on: SK-MEL-2 melanoma
SK-MEL-5 melanoma = tested on: SK-MEL-5 melanoma
T-47D breast = tested on: T-47D breast

## COc1ccccc1-c1cc(=O)c2ccccc2[nH]1
786-0 renal
  TGI: > 100 µM
A549 NSCLC
  TGI: > 100 µM
ACHN renal
  TGI: > 100 µM
CCRF-CEM leukemia
  TGI: > 100 µM
COLO 205 colon
  TGI: > 100 µM
DLD-1 colon
  TGI: > 100 µM
DMS 273 small cell lung
  TGI: > 100 µM
EKVX NSCLC
  TGI: > 100 µM
HCC-2998 colon
  TGI: > 100 µM
HCT-116 colon
  TGI: > 100 µM
HCT-15 colon
  TGI: > 100 µM
HL-60(TB) leukemia
  TGI: > 100 µM
HOP-62 NSCLC
  TGI: > 100 µM
IGROV1 ovarian
  TGI: > 100 µM
K-562 leukemia
  TGI: > 100 µM
KM12 colon
  TGI: > 100 µM
KM20L2 colon
  TGI: > 100 µM
LOX IMVI melanoma
  TGI: > 100 µM
LXFL 529 NSCLC
  TGI: > 100 µM
M14 melanoma
  TGI: > 100 µM
M19-MEL melanoma
  TGI: > 100 µM
MALME-3M melanoma
  TGI: > 100 µM
MOLT-4 leukemia
  TGI: > 100 µM
NCI-H226 lung
  TGI: > 100 µM
NCI-H23 lung
  TGI: > 100 µM
NCI-H460 lung
  TGI: > 100 µM
NCI-H522 lung
  TGI: > 100 µM
OVCAR-3 ovarian
  TGI: > 100 µM
OVCAR-8 ovarian
  TGI: > 100 µM
RPMI-8226 leukemia
  TGI: > 100 µM
RXF 393 renal
  TGI: > 100 µM
SF-268 CNS
  TGI: > 100 µM
SF-295 CNS
  TGI: > 100 µM
SF-539 CNS
  TGI: > 100 µM
SK-MEL-28 melanoma
  TGI: > 100 µM
SK-OV-3 ovarian
  TGI: > 100 µM
SN12C renal
  TGI: > 100 µM
SNB-19 CNS
  TGI: > 100 µM
SNB-75 CNS
  TGI: > 100 µM
SNB-78 CNS
  TGI: > 100 µM
SR leukemia
  TGI: > 100 µM
SW-620 colon
  TGI: > 100 µM
TK-10 renal
  TGI: > 100 µM
U251 CNS
  TGI: > 100 µM
UACC-257 melanoma
  TGI: > 100 µM
UACC-62 melanoma
  TGI: > 100 µM
UO-31 renal
  TGI: > 100 µM

## C=C1C(=O)OC2CC1C(O)C/C(C)=C/CC/C(C)=C/C(O)CC2C (stereo unspecified)
786-0 renal
  TGI: 3.99 µM
A498 renal
  TGI: 9.16 µM
A549 NSCLC
  TGI: 28.1 µM
ACHN renal
  TGI: 3.75 µM
BT-549 breast
  TGI: 6.45 µM
CAKI-1 renal
  TGI: 8.39 µM
CCRF-CEM leukemia
  TGI: 1.34 µM
COLO 205 colon
  TGI: 2.94 µM
DU-145 prostate
  TGI: 10.8 µM
EKVX NSCLC
  TGI: 5.81 µM
HCC-2998 colon
  TGI: 4.21 µM
HCT-116 colon
  TGI: 3.33 µM
HCT-15 colon
  TGI: 4.95 µM
HL-60(TB) leukemia
  TGI: 1.32 µM
HOP-62 NSCLC
  TGI: 25.2 µM
HOP-92 NSCLC
  TGI: 4.17 µM
HS 578T breast
  TGI: 11 µM
HT29 colon
  TGI: 4.61 µM
IGROV1 ovarian
  TGI: 9.3 µM
K-562 leukemia
  TGI: > 30.5 µM
KM12 colon
  TGI: 18.3 µM
LOX IMVI melanoma
  TGI: 2.74 µM
M14 melanoma
  TGI: 9.63 µM
MALME-3M melanoma
  TGI: 7.61 µM
MCF7 breast
  TGI: 7.44 µM
MDA-MB-231 breast
  TGI: 12.4 µM
MDA-MB-435
  TGI: 13.4 µM
MDA-N
  TGI: 9.53 µM
MOLT-4 leukemia
  TGI: 3.11 µM
NCI-H226 lung
  TGI: 24.8 µM
NCI-H23 lung
  TGI: 7.8 µM
NCI-H460 lung
  TGI: 10.8 µM
NCI-H522 lung
  TGI: 0.504 µM
NCI/ADR-RES ovarian
  TGI: 4.8 µM
OVCAR-3 ovarian
  TGI: 9.2 µM
OVCAR-4 ovarian
  TGI: 11.5 µM
OVCAR-5 ovarian
  TGI: 24.7 µM
OVCAR-8 ovarian
  TGI: 4.72 µM
PC-3 prostate
  TGI: 13.1 µM
RPMI-8226 leukemia
  TGI: 6.23 µM
RXF 393 renal
  TGI: 2.96 µM
SF-268 CNS
  TGI: 8.66 µM
SF-295 CNS
  TGI: 26.7 µM
SF-539 CNS
  TGI: 6.55 µM
SK-MEL-2 melanoma
  TGI: 12.2 µM
SK-MEL-28 melanoma
  TGI: 9.8 µM
SK-MEL-5 melanoma
  TGI: 15.4 µM
SK-OV-3 ovarian
  TGI: 26.5 µM
SN12C renal
  TGI: 4.83 µM
SNB-19 CNS
  TGI: 18.9 µM
SNB-75 CNS
  TGI: 16.3 µM
SR leukemia
  TGI: 2.61 µM
SW-620 colon
  TGI: 5.62 µM
T-47D breast
  TGI: 4.48 µM
TK-10 renal
  TGI: 6.91 µM
U251 CNS
  TGI: 16.8 µM
UACC-257 melanoma
  TGI: 10.3 µM
UACC-62 melanoma
  TGI: 6.1 µM
UO-31 renal
  TGI: 6.66 µM
